{"source": "patent US20040228866A1", "about": "“Suppressor genes” (Ludwig Institute for Cancer Research, priority 2000, published 2004)", "tested_on": "Saos-2 cells", "experiment": "Apoptosis by flow cytometry (CD20-gated, sub-G1 DNA content) in transfected Saos-2 cells", "type": "cell-based", "description": "Apoptosis was identified by the expression of the co-transfected cell surface marker CD20, as described in Samuels-Lev et al. (Mol. Cell 8:781-94, 2001, herein incorporated by reference).\nThe number of apoptotic cells was determined using the methods described in Example 6.\nCells (10^6) were plated 24-48 hours prior to transfection in 10 cm plates. Cells were grown in DMEM supplemented with 10% FCS and transfected with 2 μg of a plasmid expressing CD20 as a transfection marker. Increasing amounts of ASPP1 and ASPP2 were transfected (7.5 μg, 15 μg and 25 μg). 36 hours after the transfection, both attached and floating cells were harvested and analysed using flow cytometry as follows. The transfected cells were gated based on the expression of CD20. The percentage of apoptotic cells was measured by the accumulation of cells with a sub-G1 DNA content derived from at least three individual experiments.\nThe transfected cells were analyzed by flow cytometry as described in Example 6."}
{"substance": "Bcl-2: anti-apoptotic Bcl-2 oncoprotein", "values": [{"measurement": "effect on the apoptotic function of wild type p53", "setting": "co-expressed with p53", "result": "decreased"}, {"measurement": "effect on the enhancement of p53 apoptotic function by ASPP1 and ASPP2", "setting": "co-expressed with p53 and ASPP1 or ASPP2", "result": "effectively prevented ASPP1 and ASPP2 from enhancing the apoptotic function of p53"}, {"measurement": "effect on apoptosis induced by p53H175-L", "setting": "transcriptionally inactive, mitochondria-targeted mutant p53, FIG. 9A", "result": "failed to decrease or inhibit apoptosis induced by p53H175-L"}]}
